In PMC2852139 (Biochemistry, 2010):

Target: T1, Apaf-1 (Homo sapiens, UniProt O14727)
T1 sequence (O14727 1-1248): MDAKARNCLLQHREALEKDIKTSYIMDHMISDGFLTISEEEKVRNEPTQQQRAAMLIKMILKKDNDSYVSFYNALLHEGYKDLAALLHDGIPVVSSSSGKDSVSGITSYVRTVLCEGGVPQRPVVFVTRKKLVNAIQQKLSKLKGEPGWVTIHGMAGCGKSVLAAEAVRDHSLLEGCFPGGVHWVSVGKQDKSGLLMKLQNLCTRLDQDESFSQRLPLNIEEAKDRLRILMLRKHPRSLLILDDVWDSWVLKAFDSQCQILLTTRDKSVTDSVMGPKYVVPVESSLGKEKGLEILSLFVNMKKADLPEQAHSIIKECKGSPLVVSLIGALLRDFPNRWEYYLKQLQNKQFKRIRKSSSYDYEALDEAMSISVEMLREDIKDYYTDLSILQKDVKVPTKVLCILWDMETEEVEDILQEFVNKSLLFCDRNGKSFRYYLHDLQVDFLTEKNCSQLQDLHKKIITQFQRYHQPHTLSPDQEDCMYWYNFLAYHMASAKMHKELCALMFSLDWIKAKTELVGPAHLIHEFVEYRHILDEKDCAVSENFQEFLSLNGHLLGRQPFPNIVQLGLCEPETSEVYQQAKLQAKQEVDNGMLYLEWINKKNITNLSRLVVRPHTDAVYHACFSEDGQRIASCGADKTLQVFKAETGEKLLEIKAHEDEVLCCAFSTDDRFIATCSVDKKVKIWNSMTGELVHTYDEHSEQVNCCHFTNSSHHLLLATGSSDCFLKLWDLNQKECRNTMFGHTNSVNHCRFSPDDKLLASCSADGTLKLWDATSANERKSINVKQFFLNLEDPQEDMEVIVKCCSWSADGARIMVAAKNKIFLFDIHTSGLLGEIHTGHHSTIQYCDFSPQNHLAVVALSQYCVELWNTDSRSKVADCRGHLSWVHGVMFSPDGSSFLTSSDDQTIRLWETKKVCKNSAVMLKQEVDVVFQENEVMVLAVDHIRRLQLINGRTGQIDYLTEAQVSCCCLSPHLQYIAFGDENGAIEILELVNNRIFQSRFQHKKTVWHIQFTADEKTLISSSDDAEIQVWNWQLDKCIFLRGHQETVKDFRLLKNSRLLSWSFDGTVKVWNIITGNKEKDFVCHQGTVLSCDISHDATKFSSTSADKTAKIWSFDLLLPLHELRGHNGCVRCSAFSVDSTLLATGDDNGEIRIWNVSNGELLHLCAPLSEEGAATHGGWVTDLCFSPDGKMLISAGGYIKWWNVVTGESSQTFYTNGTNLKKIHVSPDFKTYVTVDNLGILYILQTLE
T1 sequence (P06454 2-111 partner): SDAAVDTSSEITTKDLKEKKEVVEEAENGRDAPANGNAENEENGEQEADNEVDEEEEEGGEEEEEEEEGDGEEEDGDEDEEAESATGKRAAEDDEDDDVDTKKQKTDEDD
Experiment: ELISA and FLAG-IP of recombinant Apaf-1/ProT interaction blocked by BETT
Format: biochemical

With `Sc1nnc(-c2cc3ccccc3o2)n1-c1ccccc1` [BETT, 5-(2-Benzofuryl)-4-phenyl-1,2,4-triazole-3-thiol] the EC50 was about 50 µM.
